# Measured values published in EP0379737A2, “Dihydropyridine derivatives for the treatment of angiospasm” (THE GREEN CROSS CORPORATION, priority 1988, dated 1990).
# What was measured:
# [1] = Toxicity: LD50 determination in mice; details: mouse, in vivo; 10 to 11-week-old male mice, 3 to 5 mice per group; read-out: LD₅₀
# Method: LD₅₀ was determined for Compound 2 as prepared in Reference Example 1 below using 10 to 11-week-old male mice (body weight: 14 to 16 g; 3 to 5 mice per group). AS a result, measured LD₅₀ values were more than 1,100 mg/kg at the lowest.
# [2] = test system: coronarism induced by laser cauterization of the coronary artery; assay: Preventive effect of premedication with coronary vasodilators on coronarism induced by laser cauterization of the coronary artery; assay type: in vivo; details: anesthetized dogs, drugs given 10 minutes before cauterization (TNG 100 µg i.c. + 50 µg/min d.i.v.; NC 30 µg/kg/min d.i.v.; Compound 2 10 µg/kg i.v.); for Degree of Stenosis (%) (m ± SE) 10 mins. After: 10 minutes after cauterization; for Degree of Stenosis (%) (m ± SE) 30 mins. After: 30 minutes after cauterization; for Degree of Stenosis (%) (m ± SE) Immediately After: immediately after cauterization
# Method: Preventive effect of premedication of coronary vasodilators on coronarism induced by laser cauterization of the coronary artery was examined using dogs.
# Twenty-three anesthetized dogs premediated with a coronary vasodilator [8 dogs in non-treated group (control group); 7 in nitroglycerin-treated (TNG) group (100 µg i.c. (intracoronary) + 50 µg/min d.i.v. (intravenous drip injection)); 5 in Nicorandil (NC) group (30 µg/kg/min d.i.v); and 8 in Compound 2 (hereinafter described) group (10 µg/kg i.v.)] were used. A 9F guiding catheter was inserted from the right common carotid artery into the 28th circumflex ramus extending from the anterior descending branch of the right common carotid artery. After intravenous injection of 250 U of heparin and 20 mg of lidocaine, a probe having an argon laser heating tip having a diameter of 1.5 mm (manufactured by Trimedyne Corp.) was inserted through the catheter, and 10 minutes after the administration of drugs the coronary vessel was cauterized under a condition of 4.5 W × […] under photofluoroscopic observation. Before the cauterization, immediately after the cauterization, and 10 minutes and 30 minutes after the cauterization, changes of the coronary artery were angiographically observed. The degree of stenosis (%) was calculated from the measured inner diameter each of the cauterized site and the normal site. The degree of stenosis of a site undergoing retardation of angiography was taken as 99%.
SMILES,LD50 [1] [mg/kg],Degree of Stenosis (%) (m ± SE) 10 mins. After [2],Degree of Stenosis (%) (m ± SE) 30 mins. After [2],Degree of Stenosis (%) (m ± SE) Immediately After [2]
"COC(=O)C1=C(C)NC(C)=C(C(=O)OCCc2ccc(N3CCN(C(c4ccccc4)c4ccccc4)CC3)cc2)C1c1cccc([N+](=O)[O-])c1 (stereo not shown) [Compound 2, 2-[p-(4-benzhydrylpiperazino)phenyl]ethyl methyl 2,6-dimethyl-4-(3-nitrophenyl)-1,4-dihydropyridine-3,5-dicarboxylate]",> 1100,9 ± 10,12 ± 12,12 ± 12
"O=C(NCCO[N+](=O)[O-])c1cccnc1 [NC, Nicorandil]",–,28 ± 9,29 ± 8,38 ± 11
"O=[N+]([O-])OCC(CO[N+](=O)[O-])O[N+](=O)[O-] [TNG, nitroglycerin]",–,73 ± 17,66 ± 17,71 ± 4
